Reference: patent publication US9420817B2, “Agent for amelioration of dysphagia, and pharmaceutical or food composition comprising the same” (AJINOMOTO CO., INC., priority 2006, dated 2016)

Tested on: cough receptor
Assay: Cough receptor sensitivity test (nebulizer inhalation, C5)
Assay type: in vivo, human
Settings: seventeen healthy adults, inhaled by nebulizer for 15 seconds at intervals of one minute, 0.49 to 1,000 μM
Description: In the following Examples, 1 mL of an emulsifier (Tween 80) and 1 mL of 99.7% ethanol were added to 70 μL of the resultant extracted oil immediately before use, and the mixture was diluted with physiological saline (Otsuka) in Example 1 or with distilled water in Example 2, to thereby prepare solutions containing different concentrations of capsinoid. In the same way as above, 1 mL of an emulsifier (Tween 80) and 1 mL of 99.7% ethanol were added to 30.5 mg of capsaicin (manufactured by Sigma-Aldrich) immediately before use, and the mixture was diluted with physiological saline (Otsuka) in Example 1 or with distilled water in Example 2, to thereby prepare solutions containing different concentrations of capsaicin.
Seventeen healthy adults (mean age 36±2.6) inhaled the capsaicin solution prepared in Production Example (0.49 to 1,000 μM) by a nebulizer for 15 seconds at intervals of one minute, and the concentrations for causing five or more coughs by one aspiration (C5) were determined.
At a later date, the same test was performed for the same test subjects using the capsinoid solutions (0.49 to 1,000 μM) to determine C5, followed by comparison between C5 of the capsaicin solution and C5 of the capsinoid solution.

COc1cc(CNC(=O)CCCC/C=C/C(C)C)ccc1O [capsaicin solution, capsaicin]
C5 (concentration for causing five or more coughs by one aspiration): 2.02 µM
